Test system: SW1271 complex spheroids with HUVEC/MSC, growth, % test/control
Assay: Anticancer human tumor SW1271 cell line growth inhibition [AhR];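 further: spheroids exposed to agents for 7 days before readout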
Details: for IC50: curve of first compound; for viability, T/C: stronger effect = lower value
From the text: Multicellular complex tumor spheroid response to aryl hydrocarbon receptor antagonists in combination with a variety of drugs and investigational agents in selected tumor cell lines
The current study was undertaken to assess response to aryl hydrocarbon receptor antagonists in combination with standard-of-care drugs and investigational agents in solid tumor complex spheroid models. Complex spheroids include a stromal component modeled by human endothelial cells (HUVEC) and fibroblasts modeled by human mesenchymal stem cells (MSCs). The concentration ranges selected for each drug and investigational agent were based upon clinically achievable concentrations if the clinical Cmax of the agent was known.
Compounds. The drugs and investigational agents: BAY 2416964 (NSC825713), GNF351 (NSC835774), CH-223191 (NSC835775), CPI-455 (NSC825282), aza-TdCyd (NSC777586), decitabine (NSC127716), belinostat (NSC758774), entinostat (NSC756642), pevonedistat (NSC761192), tazemetostat (NSC777109), talazoparib (NSC765396), olaparib (NSC753686), selinexor (NSC780203), nedisertib (M3814, NSC802822), bortezomib (NSC756655), venetoclax (NSC766270), doxorubicin (NSC123127), elimusertib (BAY189344, NSC800525), ceralasertib (AZD6738, NSC777638), TAK-243 (NSC785004), alisertib (NSC759677), etoposide (NSC141540), topotecan (NSC609699), eribulin (NSC707389), gemcitabine (NSC613327), carboplatin (NSC241240), cisplatin (NSC119875), and SN-38 (NSC673596) were obtained from the National Cancer Institute (NCI) Developmental Therapeutics Program Chemical Repository (32). The FDA-approved anticancer drug set is available from the Developmental Therapeutics Program at https://dtp.cancer.gov/organization/dscb/obtaining/available plates.htm. […] The stock solutions were prepared in dimethyl sulfoxide (DMSO, Sigma-Aldrich, St. Louis, MO, cat. D2650), except for the platinum compounds which were prepared in saline (Quality Biological, Gaithersburg, MD, cat. 114-055-101), at 800-fold the tested concentration and stored at -70 degrees C prior to their use. All drugs and investigational agents were tested over a range starting from a high concentration at or near the clinical Cmax and decreasing in half-log increments. If the clinical Cmax for an agent had not been determined, the highest concentration tested was 10 microM (Table 1).
Cell Culture. All cells were maintained in an incubator at 37 degrees C and 5% CO2 with 95% humidity. The PDC lines were cultured according to standard operating procedures established by the NCI PDMR (https://pdmr.cancer.gov). Briefly, all PDCs were thawed and cultured in Matrigel-coated flasks prepared with a working solution of 1X Ham's F-12 nutrient mix, without supplementation (Invitrogen, Waltham, MA, cat. 11765054), 100 U/mL penicillin-streptomycin (Invitrogen, cat. 15140122), and 2.5% Matrigel (Corning Inc., Corning, NY, cat. 354248) for the first three passages. All PDCs were cultured in complete DMEM/F-12 media containing advanced DMEM/F-12 (Invitrogen, cat. 12634028), 4.9% defined fetal bovine serum, heat inactivated (HyClone Laboratories Inc., Logan, UT, cat. SH30070.03HI), 389 ng/mL hydrocortisone (Sigma-Aldrich, cat. H4001), 9.7 ng/mL human EGF recombinant protein (Invitrogen, cat. PHG0313), 23.4 microg/mL adenine (Sigma-Aldrich, cat. A2786), 97.3 U/mL penicillin-streptomycin (Invitrogen, cat. 15140122), 1.9 mM L-glutamine (Invitrogen, cat. 25030081), and 9.7 microM Y-27632 dihydrochloride (Tocris Bioscience, Bristol, United Kingdom, cat. 1254). The PDCs were cultured in complete DMEM/F12 media without 10 microM Y-27632 dihydrochloride for at least two passages prior to the screen. The established cell lines NCI-H1341 and […] were cultured in DMEM/F-12, HEPES (Invitrogen, cat. 11330032), 5% defined fetal bovine serum (HyClone Laboratories Inc., cat. SH30070.03), ITS premix universal culture supplement [insulin (5 microg/mL), transferrin (5 microg/mL), and selenious acid (5 ng/mL)] […]

[1] = second compound 0.1 µM, first compound 0.0316 µM
[2] = second compound 0.1 µM, first compound 0.1 µM
[3] = second compound 0.1 µM, first compound 0.316 µM
[4] = second compound 0.1 µM, first compound 1 µM
[5] = second compound 0.1 µM, first compound 3.16 µM
[6] = second compound 0.1 µM, first compound 10 µM
[7] = second compound 0.316 µM, first compound 0.0316 µM
[8] = second compound 0.316 µM, first compound 0.1 µM
[9] = second compound 0.316 µM, first compound 0.316 µM
[10] = second compound 0.316 µM, first compound 1 µM
[11] = second compound 0.316 µM, first compound 3.16 µM
[12] = second compound 0.316 µM, first compound 10 µM
[13] = second compound 1 µM, first compound 0.0316 µM
[14] = second compound 1 µM, first compound 0.1 µM
[15] = second compound 1 µM, first compound 0.316 µM
[16] = second compound 1 µM, first compound 1 µM
[17] = second compound 1 µM, first compound 3.16 µM
[18] = second compound 1 µM, first compound 10 µM
[19] = second compound 3.16 µM, first compound 0.0316 µM
[20] = second compound 3.16 µM, first compound 0.1 µM
[21] = second compound 3.16 µM, first compound 0.316 µM
[22] = second compound 3.16 µM, first compound 1 µM
[23] = second compound 3.16 µM, first compound 3.16 µM
[24] = second compound 3.16 µM, first compound 10 µM
[25] = second compound 10 µM, first compound 0.0316 µM
[26] = second compound 10 µM, first compound 0.1 µM
[27] = second compound 10 µM, first compound 0.316 µM
[28] = second compound 10 µM, first compound 1 µM
[29] = second compound 10 µM, first compound 3.16 µM
[30] = second compound 10 µM, first compound 10 µM

| SMILES | IC50 (second compound 0.1 µM) | IC50 (second compound 0.316 µM) | IC50 (second compound 1 µM) | IC50 (second compound 3.16 µM) | IC50 (second compound 10 µM) | viability, T/C [1] | viability, T/C [2] | viability, T/C [3] | viability, T/C [4] | viability, T/C [5] | viability, T/C [6] | viability, T/C [7] | viability, T/C [8] | viability, T/C [9] | viability, T/C [10] | viability, T/C [11] | viability, T/C [12] | viability, T/C [13] | viability, T/C [14] | viability, T/C [15] | other results |
| --- | --- | --- | --- | --- | --- | --- | --- | --- | --- | --- | --- | --- | --- | --- | --- | --- | --- | --- | --- | --- | --- |
| CC1(C)CCC(CN2CCN(c3ccc(C(=O)NS(=O)(=O)c4ccc(NCC5CCOCC5)c([N+](=O)[O-])c4)c(Oc4cnc5[nH]ccc5c4)c3)CC2)=C(c2ccc(Cl)cc2)C1 + CC(CO)NC(=O)c1cc(-c2ccc(Cl)cc2)nn(-c2cnn(C)c2)c1=O | > 10 µM | > 10 µM | > 10 µM | > 10 µM | > 10 µM | 85.8% | 90.7% | 107% | 98.6% | 82.7% | 71.5% | 84.4% | 73% | 71.8% | 84.2% | 100% | 78.3% | 91% | 89.3% | 78.8% | viability, T/C [16]: 80.4%; viability, T/C [17]: 85%; viability, T/C [18]: 86.3%; viability, T/C [19]: 68%; viability, T/C [20]: 70.2%; viability, T/C [21]: 91.4%; viability, T/C [22]: 82.5%; viability, T/C [23]: 60.7%; viability, T/C [24]: 88.6%; viability, T/C [25]: 70.8%; viability, T/C [26]: 69.3%; viability, T/C [27]: 74.7%; viability, T/C [28]: 54.8%; viability, T/C [29]: 78.2%; viability, T/C [30]: 78.2% |
| COc1cc(Nc2ncc3c(n2)-c2ccc(Cl)cc2C(c2c(F)cccc2OC)=NC3)ccc1C(=O)O + CC(CO)NC(=O)c1cc(-c2ccc(Cl)cc2)nn(-c2cnn(C)c2)c1=O | 6.12 µM | > 10 µM | > 10 µM | > 10 µM | 3.59 µM | 77.5% | 73.2% | 82.6% | 79.4% | 58.1% | 44% | 61.6% | 58% | 76.6% | 66% | 52.5% | 44.5% | 59.7% | 67.1% | 72.7% | viability, T/C [16]: 73.8%; viability, T/C [17]: 71.5%; viability, T/C [18]: 47.4%; viability, T/C [19]: 55.7%; viability, T/C [20]: 55.4%; viability, T/C [21]: 60.3%; viability, T/C [22]: 61.6%; viability, T/C [23]: 56.9%; viability, T/C [24]: 41.8%; viability, T/C [25]: 66.6%; viability, T/C [26]: 58.7%; viability, T/C [27]: 70.2%; viability, T/C [28]: 54.4%; viability, T/C [29]: 52.2%; viability, T/C [30]: 38.9% |

From PubChem BioAssay AID1919017 (Molecular Pharmacology Branch, DTP, NCI, 2023)
